Experimental findings from US20220177818A1, “OPERATION PROCESS FOR A CELL CULTIVATION SYSTEM” (THE AUTOMATION PARTNERSHIP (CAMBRIDGE ) LTD., priority 2019, published 2022) are described below.

The test system of this assay is fucosyltransferase. Nature of the assay: Feedback experiment: glycan profile of the monoclonal antibody from parallel CHO-bioreactor cultivations after feeding the inhibitor. The format is cell-based. As to conditions: Day 12 (end of cultivation), inhibitor in feed once per day from day 4; average of all 3 cultivations; relative to total measured glycans. The text has this:
In said experiment, parallel CHO-bioreactor cultivations producing a monoclonal antibody were started.
Values are in relative to the total amount of measured glycans. The different glycan profile abbreviations are explained in FIG. 7B. […] A decision was taken to reduce the fucosylated species, for example in order to increase ADCC potency (see e.g. Peipp et al 2008).
For this reason, the feeding strategy was adapted to contain an inhibitor of fucosyltransferase (2F-Peracetly-Fucose) in the feed (73). The feed was administered once per day throughout the experiment. Process samples were taken at the end of cultivation (day 12) and analyzed to check for the effect of the altered feeding strategy and compared to data from standard cultivations (74).

The structures appear in SMILES notation.

`CC(=O)OC1O[C@@H](C)[C@@H](OC(C)=O)[C@@H](OC(C)=O)[C@@H]1F` (stereo partly drawn) [2F-Peracetly-Fucose, 2F-Peracetyl-Fucose]: the “percentage distribution of analyzed glycans: FA2” value is recorded as 7,3%, the “percentage distribution of analyzed glycans: FA2G1” value is given as 2,6% and the “percentage distribution of analyzed glycans: FA2G2” value is reported as 0,26%.
